Assay results reported in US7648977B2, “Pharmaceutical composition having a ruthenium oxalato compound and method of using the same” (The University of Hong Kong, priority 2005, dated 2010).

Assays:
HIV-1(BaL) = conditions: Hut/CCR5 cells, 3 or 7 days, 0.5-50 μM, viral p24 antigen
Procedure: Following infection, the cells were washed to remove residual viral inoculums and cultured in the presence of compounds (400 μL) for 3 or 7 days. Culture supernatants were harvested and viral replication was measured by determination of viral p24 antigen concentration by ELISA (HIV-1 p24 antigen Kit, Beckman Coulter). Compounds were tested in triplicate at 3 concentrations ranging from 0.5-50 μM.

HIV-1(IIIB) = conditions: 0.5-50 μM, viral p24 antigen, FIG. 8
Procedure: GHOST/CXCR4 and PBMC cells in 24-well plate (5×10^5 cells/well) were pretreated with compounds (400 μL) for an hour at 37° C. and subsequently infected in triplicate with a panel of CCR5-tropic HIV-1 isolates (with the addition of 5 μL of HIV-1 stock to each well, total p24 content=1500 pg) for 3 h. Following infection, the cells were washed to remove residual viral inoculums and cultured in the presence of compounds (400 μL) for 3 or 7 days. Culture supernatants were harvested and viral replication was measured by determination of viral p24 antigen concentration by ELISA (HIV-1 p24 antigen Kit, Beckman Coulter). Compounds were tested in triplicate at 3 concentrations ranging from 0.5-50 μM. AZT was also examined as a reference standard.

[1] = system: HIV-1 infected Hut/CCR5 cells; assay: TUNEL assay, cytoprotective activity in HIV-1 infected Hut/CCR5 cells; format: cell-based; conditions: HIV-1 infected Hut/CCR5 cells, 0.5, 5 and 50 μM
Description: The TUNEL reaction preferentially labels DNA strand breaks generated during apoptosis. This is done by labeling DNA strand breaks by terminal deoxynucleotidyl transferase (TdT), which catalyzes polymerization of labeled nucleotides to free 3′-OH DNA ends in a template-independent manner (TUNEL-reaction). The TUNEL method (In Situ Cell Death Detection Kit, Fluorescein, Roche) combined with flow cytometry was used for the measurement of apoptosis (Gorczyca et al. Cancer Res. (1993), 53, 1945). The quantitative analysis of 3′-OH ends was performed using the MDADS analysis program (Beckman Coulter).
HIV-1 infected Hut/CCR5 cells were treated with 2 (0.5, 5, and 50 μM) for 3 days. The cells were fixed (in 4% paraformaldehyde in PBS, pH 7.4) and permeabilisated (0.1% Triton X-100 in 0.1% sodium citrate), The cells were then rinsed twice with PBS and labeled with 50 μL TUNEL reaction mixture (50 μL Enzyme solution +450 μL Label solution) for 60 min. at 37° C. in a humidified atmosphere in dark. The samples were rinsed with PBS three times and resuspended in 1 mL PBS containing 5 μg/mL of PI and 0.1% RNAse. Flow cytometry was performed on a FACScan cytometry. The red (PI) and green (fluorescein) fluorescence emissions from each cell were measured.

HIV-1 RT = HIV-1 RT (Human immunodeficiency virus type 1 group M subtype B, UniProt P04585); conditions: percentage luminescence relative to untreated control
Procedure: The inhibitory effect of different compounds on HIV-1 RT activities were assayed using a commercial assay kit (Reverse Transcriptase Assay, Chemiluminescent, Roche). […] (30 min.). The ELISA assays were conducted by following the manufacturer's instructions (Eberle and Seibl J. Virol. Methods (1992), 40, 347). In general, the indicated components were added to the corresponding wells of the microtitre plate from the kit and incubated for 1 h at 37° C. The solution in each well was then completely removed and the wells were rinsed five times with 250 μL of washing buffer per well. During each washing step, the washing buffer was left in the wells for a minimum of 30 seconds. The microtitre plate modules were covered and dried with a blotting paper, followed by the incubation with anti-DIG-POD working dilution was added (200 μL per well) for 1 h at 37° C. The solution was discarded followed by the washing and drying steps as described above. The POD substrate was added (200 μL per well) and was incubated at room temperature for 15 min. The chemiluminescent signal was measured and quantified using a microtitre plate chemiluminescence reader. The HIV-1 RT activities were evaluated based on percentage luminescence of the solutions relative to the negative control (untreated population).

**Q.** Which “inhibition of HIV-1(BaL) replication” value (HIV-1(BaL)) does the source give for Na7[Ru4(μ3-O)4(C2O4)6] [Complex 2] here?
**A.** inhibited

**Q.** What about the “inhibition of HIV-1 replication in GHOST/CXCR4 cells” value (HIV-1(IIIB)) of the same substance?
**A.** inhibited

**Q.** What about the “inhibition of HIV-1 replication in PBMC cells” value (HIV-1(IIIB)) of the same substance?
**A.** inhibited

**Q.** And the “cytoprotective activity (TUNEL)” value [1]?
**A.** showed cytoprotective activity

**Q.** What about the “inhibition of HIV-1 RT activity” value (HIV-1 RT) of the same substance?
**A.** inhibited
